The target of one experiment is T1, FL-SHP2 (Homo sapiens, UniProt Q06124).
T1 construct: whether CNBCA is also effective against full-length SHP2 (FL-SHP2); expressed in transfected cells; host or cells: MDA-MB468
T1 sequence (Q06124 1-593): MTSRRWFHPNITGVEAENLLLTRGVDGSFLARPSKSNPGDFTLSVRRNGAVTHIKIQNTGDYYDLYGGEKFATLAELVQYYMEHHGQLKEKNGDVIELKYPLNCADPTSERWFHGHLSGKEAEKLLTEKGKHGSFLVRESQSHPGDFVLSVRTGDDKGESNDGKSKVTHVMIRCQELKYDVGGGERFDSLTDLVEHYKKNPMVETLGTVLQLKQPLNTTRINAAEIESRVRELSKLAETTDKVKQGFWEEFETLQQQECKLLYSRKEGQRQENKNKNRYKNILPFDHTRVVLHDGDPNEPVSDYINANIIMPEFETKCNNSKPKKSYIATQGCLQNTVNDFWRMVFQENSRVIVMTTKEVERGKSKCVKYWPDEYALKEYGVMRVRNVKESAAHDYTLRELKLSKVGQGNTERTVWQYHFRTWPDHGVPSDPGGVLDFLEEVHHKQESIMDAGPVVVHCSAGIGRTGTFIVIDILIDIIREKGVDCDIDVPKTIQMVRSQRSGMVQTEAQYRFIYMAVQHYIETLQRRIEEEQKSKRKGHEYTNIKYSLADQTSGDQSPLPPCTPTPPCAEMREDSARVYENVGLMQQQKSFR
The experiment is described as follows: PTPase assay on FLAG-tagged full-length SHP2 immunoprecipitated from MDA-MB468 cells. Format: biochemical. The settings on record: FLAG-tagged FL-SHP2 on beads from MDA-MB468 cells, 20 μM DiFMUP. The text has this:
To confirm efficiency of the expression, we conducted IB analysis of total protein extracts (TPE) prepared from the noncancerous MEF cells (mouse embryo fibroblasts), the MDA-MB468 BC cells that overexpress EGFR, and the BT474 BC cells that overexpress HER2. […] We also performed HER2 and EGFR IB analyses, which confirmed overexpression of these RTKs in the BC cells, but not in the MEF cells. […] Next, FL-SHP2 was immunoprecipitated (IP) with anti-FLAG antibody from the TPEs of the three cells (Figure 3F) and used for determining the activation state while still bound to protein-A sepharose beads, as described in the materials and methods. […] We thus used SHP2 expressed in BC cells to test the inhibitory effect of CNBCA on FL-SHP2. […]
For determining the inhibitory effect of CNBCA on FL-SHP2, a FLAG-tagged protein ectopically expressed in the EGFR overexpressing MDA-MB468 cells[8],[15] was used as an enzyme. […] After 20 min of incubation at 37 °C, 100 μL of the supernatant from each sample was transferred to 96-well plates, and fluorescence intensity measure as above, using the Synergy 4 plate reader. The resulting data was then analyzed with the Graphpad Prism software to draw the graph and determine the IC50 value.

Experiment [1] relates to BT474 cells. Description: Basal pAkt and pERK1/2 signaling by immunoblotting in BT474 cells. Format: cell-based. The settings on record: Homo sapiens, BT-474. As to the method: (§1) Since SHP2 is an essential mediator of mitogenic and cell survival signaling in breast cancer cells, we determined the effect of CNBCA treatment on activation of ERK1/2 and Akt in the HER2-positive BT474 and in the triple-negative MDA-MB468 cell lines. Cells growing in 2D culture were treated with varying concentrations of CNBCA, ranging from 0.250 to 2.0 μM, for 48 h, and total cell lysates were analyzed by immunoblotting (IB) with antibodies that recognize the activated forms of ERK1/2 (pERK1/2) and Akt (pAkt).

Experiment [2] has as its system MDA-MB468 cells. Description: Basal pAkt and pERK1/2 signaling by immunoblotting in MDA-MB468 cells. To be noted: Homo sapiens, MDA-MB-468; MDA-MB468, 48 h treatment, band density pAkt and pERK1/2; read-out: IC50 for SHP2 mediated Akt and ERK1/2 activation. Format: cell-based. As to the method: as §1
Experiment [3] relates to MDA-MB468 cells. The experiment is described as follows: Cell growth in 2D culture, MDA-MB468. The settings on record: MDA-MB468, 500 nM, 72 h; vehicle treated cells grew to confluency. It is filed as cell-based. As to the method: (§2) Since SHP2 is essential for the growth and transformation of BC cells,[8],[9],[11] we determined the effect of SHP2 inhibition with CNBCA in 2D and 3D culture systems. For the effect on cell growth, BC cells (BT474 and MDA-MB468) were seeded in 2D culture and treated with a single concentration of CNBCA (500 nM), the concentration that provided a 50% inhibition of SHP2 mediated signaling in BT474 cells. Images were collected at the start and every 24 h for a total of 72 h (3 days). […] For effect on anchorage independent growth, approximately 10^6 cells were seeded in soft agar as described previously,[24] and treated with CNBCA at 500 nM concentration for 10 days with refeeding and adjustment of compound concentration. […] Finally, the effect of CNBCA on cancer stem cell properties was determined by the suspension assay, in which only cells with stem-like properties only can grow and form mammospheres.[7],[24],[36] Approximately 10^6 cells were seeded in nonadherent 6 cm plates and treated with CNBCA (500 nM) for 10 days with complementation of media and drug concentration.

Experiment [4] has as its system BT474 cells. Description: Colony formation in soft agar, BT474. Format: cell-based. To be noted: BT474, 500 nM, 10 days, versus vehicle. As to the method:
as §2
For colony formation studies, we used the soft agar assay, which keeps cells anchorage independently, allowing determination on the transformation phenotype of cancer cells, including breast cancer cells.[11],[35] For this assay, we first prepared a 5% stock suspension in PBS by boiling it in a microwave. […]

This note sets out measurements from article PMC10591299, “Targeting SHP2 with an Active Site Inhibitor Blocks Signaling and Breast Cancer Cell Phenotypes” (ACS Bio & Med Chem Au, 2023).

Read-outs that look alike come from different tables or passages of the source.

Consider `CCCCCCCCCOc1ccc(-c2ccc(C(=O)O)cc2)cc1CCCC(=O)O` [CNBCA, 3′-(3-carboxypropyl)-4′-(nonyloxy)-[1,1′-biphenyl]-4-carboxylic acid], for which the IC50 was 615 nM on FL-SHP2; approximately 1000 nM in the experiment on BT474 cells [1] (BT474, 48 h treatment, band density pAkt and pERK1/2, read-out: IC50 for SHP2 mediated Akt and ERK1/2 activation); 500 nM with BT474 cells [1] (BT474 cells, read-out: concentration that provided a 50% inhibition of SHP2 mediated signaling); approximately 1000 nM in the experiment with MDA-MB468 cells [2]. Also, the “cell growth in 2D culture” value with MDA-MB468 cells [3] was “half-confluent”. In the experiment on BT474 cells [4], the “colony formation in soft agar” value is “fewer and smaller colonies”.
